From article PMC5926424 (Japanese Journal of Cancer Research : Gann, 2000)
Where two headings read alike, the source gives them in different places.

Tests used:
LDL = conditions: cited from earlier work
albumin = conditions: cited from earlier work
HDL = conditions: cited from earlier work
T.Tn cells = format: cell-based; conditions: for ATX-S10(Na) uptake: 3 h
[1] = T.Tn cells, 50 μg/ml ATX-S10(Na), 10% FCS, 37C, Fig. 4

C=Cc1c(C)c2cc3nc(c(CC(=O)N[C@@H](CC(=O)O)C(=O)O)c4[nH]c(cc5nc(cc1[nH]2)C(C)=C5CC)c(C)c4C(=O)O)[C@@H](CCC(=O)O)[C@@H]3C [NPe6, N-aspartyl chlorin-e6]
Fraction bound to LDL (LDL): 1%
Fraction bound to albumin (albumin): 80%
Fraction bound to HDL (HDL): 19%

CCCN(CCC)S(=O)(=O)c1ccc(C(=O)O)cc1 [Probenecid]
ATX-S10(Na) uptake (T.Tn cells; 30 µM): 112.3 % of control
ATX-S10(Na) uptake (T.Tn cells; 100 µM): 105.5 % of control
ATX-S10(Na) uptake (T.Tn cells; 300 µM): 113.1 % of control
ATX-S10(Na) uptake (T.Tn cells; 1000 µM): 115.7 % of control

CC[C@@]1([C@@H]2O[C@@H]([C@H]3O[C@@](O)(CO)[C@H](C)C[C@@H]3C)C[C@@H]2C)CC[C@H]([C@]2(C)CC[C@]3(C[C@H](O)[C@@H](C)[C@@H]([C@@H](C)[C@@H](OC)[C@H](C)C(=O)O)O3)O2)O1 [monensin]
Effect of endocytosis inhibitor on cellular uptake of ATX-S10(Na) (T.Tn cells; [1]): partially but significantly inhibited

O=CC(=O)c1ccccc1 [phenylglyoxal]
Effect of endocytosis inhibitor on cellular uptake of ATX-S10(Na) (T.Tn cells; [1]): partially but significantly inhibited

CCN(CC)CCCC(C)Nc1ccnc2cc(Cl)ccc12 (stereo not shown) [chloroquine]
Effect of endocytosis inhibitor on cellular uptake of ATX-S10(Na) (T.Tn cells): partially but significantly inhibited
